In PubChem BioAssay AID2060602 (Molecular Pharmacology Branch, DTP, NCI, 2025):
pIC50: −log10 of the molar value. “And” between values parts separate entries of the source, which are not always exact repeats. Equal values may be shown once.

Test system: 648629-189-R-J1-PDC complex spheroids viability
Test: Anticancer human tumor 648629-189-R-J1-PDC patient-derived bladder carcinoma cell line growth inhibition [CLK]
Conditions: for viability, T/C: stronger effect = lower value
Summary of the method: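 Multi-cell-type spheroids combined patient-derived tumor cells with HUVEC endothelial cells and human mesenchymal stem cells. Paired agents were dosed in half-log steps down from about clinical Cmax, or from 10 microM where Cmax was unknown.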

[1] = curve of first compound, second compound 0.0316 µM
[2] = curve of first compound, second compound 0.1 µM
[3] = curve of first compound, second compound 0.316 µM
[4] = curve of first compound, second compound 1 µM
[5] = curve of first compound, second compound 3.16 µM
[6] = curve of first compound, second compound 10 µM
[7] = second compound 0.0316 µM, first compound 0.0316 µM
[8] = second compound 0.0316 µM, first compound 0.1 µM
[9] = second compound 0.0316 µM, first compound 0.316 µM
[10] = second compound 0.0316 µM, first compound 1 µM
[11] = second compound 0.0316 µM, first compound 3.16 µM
[12] = second compound 0.0316 µM, first compound 10 µM
[13] = second compound 0.1 µM, first compound 0.0316 µM
[14] = second compound 0.1 µM, first compound 0.1 µM
[15] = second compound 0.1 µM, first compound 0.316 µM
[16] = second compound 0.1 µM, first compound 1 µM
[17] = second compound 0.1 µM, first compound 3.16 µM
[18] = second compound 0.1 µM, first compound 10 µM
[19] = second compound 0.316 µM, first compound 0.0316 µM
[20] = second compound 0.316 µM, first compound 0.1 µM
[21] = second compound 0.316 µM, first compound 0.316 µM
[22] = second compound 0.316 µM, first compound 1 µM
[23] = second compound 0.316 µM, first compound 3.16 µM
[24] = second compound 0.316 µM, first compound 10 µM
[25] = second compound 1 µM, first compound 0.0316 µM
[26] = second compound 1 µM, first compound 0.1 µM
[27] = second compound 1 µM, first compound 0.316 µM
[28] = second compound 1 µM, first compound 1 µM
[29] = second compound 1 µM, first compound 3.16 µM
[30] = second compound 1 µM, first compound 10 µM
[31] = second compound 3.16 µM, first compound 0.0316 µM
[32] = second compound 3.16 µM, first compound 0.1 µM
[33] = second compound 3.16 µM, first compound 0.316 µM
[34] = second compound 3.16 µM, first compound 1 µM
[35] = second compound 3.16 µM, first compound 3.16 µM
[36] = second compound 3.16 µM, first compound 10 µM
[37] = second compound 10 µM, first compound 0.0316 µM
[38] = second compound 10 µM, first compound 0.1 µM
[39] = second compound 10 µM, first compound 0.316 µM
[40] = second compound 10 µM, first compound 1 µM
[41] = second compound 10 µM, first compound 3.16 µM
[42] = second compound 10 µM, first compound 10 µM
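Wherever viability, T/C is given: drug exposure lasted seven days before viability readout; 100% = DMSO vehicle control wells.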

For `NC(=O)C(=Cn1cnc(-c2cc(C(F)(F)F)cc(C(F)(F)F)c2)n1)c1cncnc1` + CNC(=O)c1ccc(Nc2nc(OC3CCCC3)c3c(-c4ccc5nc(C)oc5c4)c[nH]c3n2)c(OC)c1, the pIC50 [1] was 7.28, the pIC50 [2] was 7.35 and the pIC50 [3] was > 8.02. The pIC50 [4] was > 8.02, the pIC50 [5] was > 8.02 and the pIC50 [6] was > 8.02. For the same molecule, the viability, T/C (second compound 0.0316 µM, first compound 0.00949 µM) was 99%, the viability, T/C (second compound 0.0316 µM, first compound 0.03 µM) was 83.4% and the viability, T/C (second compound 0.0316 µM, first compound 0.0949 µM) was 13.9%. The viability, T/C (second compound 0.0316 µM, first compound 0.3 µM) was 5.54%, the viability, T/C (second compound 0.0316 µM, first compound 0.949 µM) was 2.71% and the viability, T/C (second compound 0.0316 µM, first compound 3 µM) was 2.7%. The viability, T/C (second compound 0.1 µM, first compound 0.00949 µM) was 94.1%, the viability, T/C (second compound 0.1 µM, first compound 0.03 µM) was 68.2% and the viability, T/C (second compound 0.1 µM, first compound 0.0949 µM) was 14.8%. The viability, T/C (second compound 0.1 µM, first compound 0.3 µM) was 4.73%, the viability, T/C (second compound 0.1 µM, first compound 0.949 µM) was 2.15% and the viability, T/C (second compound 0.1 µM, first compound 3 µM) was 2.48%. The viability, T/C (second compound 0.316 µM, first compound 0.00949 µM) was 22.4%, the viability, T/C (second compound 0.316 µM, first compound 0.03 µM) was 17.4% and the viability, T/C (second compound 0.316 µM, first compound 0.0949 µM) was 7.71%. The viability, T/C (second compound 0.316 µM, first compound 0.3 µM) was 2.5%, the viability, T/C (second compound 0.316 µM, first compound 0.949 µM) was 1.35% and the viability, T/C (second compound 0.316 µM, first compound 3 µM) was 2.05%. The viability, T/C (second compound 1 µM, first compound 0.00949 µM) was 18.1%, the viability, T/C (second compound 1 µM, first compound 0.03 µM) was 11.5% and the viability, T/C (second compound 1 µM, first compound 0.0949 µM) was 4.85%. For the same molecule, the viability, T/C (second compound 1 µM, first compound 0.3 µM) was 1.29%, the viability, T/C (second compound 1 µM, first compound 0.949 µM) was 0.91% and the viability, T/C (second compound 1 µM, first compound 3 µM) was 0.42%. The viability, T/C (second compound 3.16 µM, first compound 0.00949 µM) was 14.7%, the viability, T/C (second compound 3.16 µM, first compound 0.03 µM) was 11.7% and the viability, T/C (second compound 3.16 µM, first compound 0.0949 µM) was 5.56%. For the same molecule, the viability, T/C (second compound 3.16 µM, first compound 0.3 µM) was 1.15%, the viability, T/C (second compound 3.16 µM, first compound 0.949 µM) was 1.87% and the viability, T/C (second compound 3.16 µM, first compound 3 µM) was 1.75%. For the same molecule, the viability, T/C (second compound 10 µM, first compound 0.00949 µM) was 15.4%, the viability, T/C (second compound 10 µM, first compound 0.03 µM) was 8.85% and the viability, T/C (second compound 10 µM, first compound 0.0949 µM) was 5.59%. It also gave a viability, T/C (second compound 10 µM, first compound 0.3 µM) of 1.56%, a viability, T/C (second compound 10 µM, first compound 0.949 µM) of 1.79% and a viability, T/C (second compound 10 µM, first compound 3 µM) of 0.33%.
With `COc1cccc2c1C(=O)c1c(O)c3c(c(O)c1C2=O)CC(O)(C(=O)CO)CC3OC1CC(N)C(O)C(C)O1` (stereo not drawn) + CN1CCN(c2cc(C(=O)Nc3cc4cc(-c5cnn(C)c5)ccc4cn3)ccn2)CC1 the pIC50 [1] was > 7.50, the pIC50 [2] was > 7.50 and the pIC50 [3] was > 7.50. For the same molecule, the pIC50 [4] was > 7.50, the pIC50 [5] was > 7.50 and the pIC50 [6] was > 7.50. For the same molecule, the viability, T/C [7] was 22.1%, the viability, T/C [8] was 17.5% and the viability, T/C [9] was 7.83%. It also gave a viability, T/C [10] of 0.53%, a viability, T/C [11] of 0.16% and a viability, T/C [12] of 1.13%. It also gave a viability, T/C [13] of 16.5%, a viability, T/C [14] of 14.2% and a viability, T/C [15] of 5%. For the same molecule, the viability, T/C [16] was 0.45%, the viability, T/C [17] was 0.14% and the viability, T/C [18] was 0.19%. It also gave a viability, T/C [19] of 16.5%, a viability, T/C [20] of 13.5% and a viability, T/C [21] of 4.02%. It also gave a viability, T/C [22] of 0.15%, a viability, T/C [23] of 0.1% and a viability, T/C [24] of 0.12%. The viability, T/C [25] was 0.16%, the viability, T/C [26] was 0.14% and the viability, T/C [27] was 0.14%. It also gave a viability, T/C [28] of 0.08%, a viability, T/C [29] of 0.11% and a viability, T/C [30] of 0.08%. The viability, T/C [31] was 0.06%, the viability, T/C [32] was 0.1% and the viability, T/C [33] was 0.09%. For the same molecule, the viability, T/C [34] was 0.07%, the viability, T/C [35] was 0.09% and the viability, T/C [36] was 0.08%. It also gave a viability, T/C [37] of 0.05%, a viability, T/C [38] of 0.61% and a viability, T/C [39] of 0.11%. For the same molecule, the viability, T/C [40] was 0.12%, the viability, T/C [41] was 0.11% and the viability, T/C [42] was 0.1%.
`COc1ccc([C@@H](O)c2cc(-c3ncnc4cc(N5CCOCC5)ccc34)c(F)cc2Cl)nn1` + CN1CCN(c2cc(C(=O)Nc3cc4cc(-c5cnn(C)c5)ccc4cn3)ccn2)CC1 was tested, and the pIC50 [1] was 5.11, the pIC50 [2] was 5.09 and the pIC50 [3] was > 7.50. For the same molecule, the pIC50 [4] was > 7.50, the pIC50 [5] was > 7.50 and the pIC50 [6] was > 7.50. For the same molecule, the viability, T/C [7] was 122%, the viability, T/C [8] was 107% and the viability, T/C [9] was 101%. It also gave a viability, T/C [10] of 95.2%, a viability, T/C [11] of 80% and a viability, T/C [12] of 41.2%. For the same molecule, the viability, T/C [13] was 98%, the viability, T/C [14] was 89% and the viability, T/C [15] was 102%. The viability, T/C [16] was 88.9%, the viability, T/C [17] was 80.3% and the viability, T/C [18] was 43.4%. For the same molecule, the viability, T/C [19] was 23%, the viability, T/C [20] was 26% and the viability, T/C [21] was 32.9%. The viability, T/C [22] was 29.2%, the viability, T/C [23] was 26.8% and the viability, T/C [24] was 19.9%. It also gave a viability, T/C [25] of 0.13%, a viability, T/C [26] of 0.23% and a viability, T/C [27] of 0.79%. It also gave a viability, T/C [28] of 0.13%, a viability, T/C [29] of 0.57% and a viability, T/C [30] of 0.16%. It also gave a viability, T/C [31] of 0.06%, a viability, T/C [32] of 0.6% and a viability, T/C [33] of 0.1%. It also gave a viability, T/C [34] of 0.08%, a viability, T/C [35] of 0.27% and a viability, T/C [36] of 1.67%. The viability, T/C [37] was 0.07%, the viability, T/C [38] was 0.13% and the viability, T/C [39] was 0.14%. It also gave a viability, T/C [40] of 0.13%, a viability, T/C [41] of 0.92% and a viability, T/C [42] of 0.65%.
In the case of `Cn1ncnc1[C@H]1c2n[nH]c(=O)c3cc(F)cc(c23)N[C@@H]1c1ccc(F)cc1`, the viability, T/C (compound 0.000316 µM) was 106% and 98.8%, the viability, T/C (compound 0.001 µM) was 84.9% and 101% and the viability, T/C (compound 0.00316 µM) was 99.2% and 97.4%. The viability, T/C (compound 0.01 µM) was 83.2% and 92.6%, the viability, T/C (compound 0.0316 µM) was 73.8% and 77.2% and the viability, T/C (compound 0.1 µM) was 67.4% and 71.5%. For the same molecule, the pIC50 (curve of compound) was < 7.00.
